# Laboratory results from US9409905B2, “Antibacterial compounds and methods for use” (PTC THERAPEUTICS, INC., priority 2011, dated 2016).
# Experiments:
# [1] = test system: Staphylococcus aureus (S. aureus) 29213; test: Antibacterial activity, microbroth dilution MIC (Table 1); type: cell-based; conditions: microbroth dilution, Gram-positive S. aureus 29213, read-out: MIC, 29213
# Outline: (§1)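 Using broth microdilution, MIC endpoints (μg/mL) mark where visible growth no longer appears; the panel spans sensitive and control Gram-negative strains plus a Gram-positive strain.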
# [2] = test system: Escherichia coli (E. coli) BAS849; test: as above; type: cell-based; conditions: microbroth dilution, super sensitive Gram-negative E. coli BAS849, read-out: MIC, BAS849
# Outline: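 Read-out: visual absence of growth. The lowest concentration meeting this gives the MIC, expressed in μg/mL, with microbroth dilution as the method.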
# E. coli 25922 = test: as above; type: cell-based, Escherichia coli; conditions: Escherichia coli; microbroth dilution; control Gram-negative E. coli 25922 strain; read-out: MIC, 25922
# Outline: as §1
# [3] = test system: Pseudomonas aeruginosa (P. aeruginosa) 27853; test: Antibacterial activity, MIC (Table 5); type: cell-based; conditions: P. aeruginosa 27853, read-out: MIC, 27853
# Outline: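 Microbroth dilution; MIC (μg/mL) = lowest concentration with no macroscopically visible growth.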
# K. pneumoniae MXX1232 = test: Antibacterial activity, MIC, resistant strain (Table 4); type: cell-based; conditions: Klebsiella pneumoniae, MXX1232; resistant K. pneumoniae MMX1232, multi-drug resistant clinical isolate; read-out: MIC, MMX1232
# Outline: (§2)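 MIC in μg/mL by microbroth dilution, scored as the lowest level that suppresses visible growth.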
# A. baumannii MXX2240 = test: as above; type: cell-based; conditions: Acinetobacter baumannii, MXX2240; resistant A. baumannii MMX2240, multi-drug resistant clinical isolate; read-out: MIC, MMX2240
# Outline: as §2
# E. coli LZ3111 = test: Antibacterial activity, MIC, quinolone resistant strain (Table 2); type: cell-based; conditions: Escherichia coli, LZ3111, read-out: MIC LZ3111
# Outline: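 Broth microdilution. Read-out: MIC in μg/mL, taken as lowest concentration with no macroscopically visible growth.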
# E. coli ELZ4251 = test: Antibacterial activity, MIC, multi-drug resistant clinical isolate (Table 3); type: cell-based; conditions: Escherichia coli
# Outline: (§3)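 MIC (μg/mL) read as lowest concentration with no macroscopically visible growth, determined by microbroth dilution.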
# E. coli ELZ4000 = test: as above; type: cell-based; conditions: Escherichia coli, ELZ4000, read-out: MIC ELZ4000
# Outline: as §3
# [4] = test system: Acinetobacter baumannii (A. baumannii) BAA747; test: Antibacterial activity, MIC (Table 4); type: cell-based; conditions: A. baumannii BAA747, read-out: MIC, BAA747
# Outline: as §2
# [5] = test system: Klebsiella pneumoniae (K. pneumoniae) 35657; test: Antibacterial activity, MIC (Table 4); type: cell-based; conditions: K. pneumoniae 35657, read-out: MIC, 35657
# Outline: as §2
SMILES,MIC [1] [µg/mL],MIC [2] [µg/mL],MIC (E. coli 25922) [µg/mL],MIC [3] [µg/mL],MIC (K. pneumoniae MXX1232) [µg/mL],MIC (A. baumannii MXX2240) [µg/mL],MIC (E. coli LZ3111) [µg/mL],MIC (E. coli ELZ4251) [µg/mL],MIC (E. coli ELZ4000) [µg/mL],MIC [4] [µg/mL],MIC [5] [µg/mL]
"CCc1c(-c2ccc3ccn(C)c3c2)[nH]c(=O)c(C(=O)O)c1O [Cpd 8, 5-ethyl-4-hydroxy-6-(1-methyl-1H-indol-6-yl)-2-oxo-1,2-dihydropyridine-3-carboxylic acid]",3.5 to 12.5,1 to 3.5,12.5 to 150,12.5 to 150,12.5 to 150,12.5 to 150,3.5 to 12.5,12.5 to 150,12.5 to 150,12.5 to 150,12.5 to 150
"CCc1c(-c2ccc3c(ccn3CCO)c2)[nH]c(=O)c(C(=O)O)c1O [Cpd 24, 5-ethyl-4-hydroxy-6-(1-(2-hydroxyethyl)-1H-indol-5-yl)-2-oxo-1,2-dihydropyridine-3-carboxylic acid]",3.5 to 12.5,< 1,3.5 to 12.5,–,12.5 to 150,12.5 to 150,12.5 to 150,12.5 to 150,12.5 to 150,3.5 to 12.5,–
"CCc1cc(C(=O)O)c(=O)[nH]c1-c1ccc2c(c1)cc(CN1CC[C@@H](F)C1)n2C [Cpd 129, (R)-5-ethyl-6-(2-((3-fluoropyrrolidin-1-yl)methyl)-1-methyl-1H-indol-5-yl)-2-oxo-1,2-dihydropyridine-3-carboxylic acid]",3.5 to 12.5,< 1,< 1,12.5 to 150,12.5 to 150,12.5 to 150,12.5 to 150,12.5 to 150,12.5 to 150,3.5 to 12.5,1 to 3.5
"CCc1cc(C(=O)O)c(=O)[nH]c1-c1ccc2c(c1)cc(CN1CCCC1C)n2C (stereo not drawn) [Cpd 130, 5-ethyl-6-(1-methyl-2-((2-methylpyrrolidin-1-yl)methyl)-1H-indol-5-yl)-2-oxo-1,2-dihydropyridine-3-carboxylic acid]",12.5 to 150,< 1,< 1,12.5 to 150,12.5 to 150,12.5 to 150,12.5 to 150,12.5 to 150,12.5 to 150,1 to 3.5,< 1
"CCc1cc(C(=O)O)c(=O)[nH]c1-c1ccc2c(c1)cc(CN1CCC[C@@H]1CO)n2C [Cpd 132, (R)-5-ethyl-6-(2-((2-(hydroxymethyl)pyrrolidin-1-yl)methyl)-1-methyl-1H-indol-5-yl)-2-oxo-1,2-dihydropyridine-3-carboxylic acid]",12.5 to 150,< 1,< 1,12.5 to 150,12.5 to 150,12.5 to 150,12.5 to 150,12.5 to 150,12.5 to 150,3.5 to 12.5,< 1
"CCc1cc(C(=O)O)c(=O)[nH]c1-c1ccc2c(c1)cc(CN1CCCCC1)n2C [Cpd 133, 5-ethyl-6-(1-methyl-2-(piperidin-1-ylmethyl)-1H-indol-5-yl)-2-oxo-1,2-dihydropyridine-3-carboxylic acid]",12.5 to 150,< 1,< 1,12.5 to 150,12.5 to 150,12.5 to 150,12.5 to 150,12.5 to 150,12.5 to 150,1 to 3.5,< 1
"CCc1c(-c2ccc3c(c2)cc(CN2CC[C@@H](F)C2)n3C)[nH]c(=O)c(C(=O)O)c1O [Cpd 177, (R)-5-ethyl-6-(2-((3-fluoropyrrolidin-1-yl)methyl)-1-methyl-1H-indol-5-yl)-4-hydroxy-2-oxo-1,2-dihydropyridine-3-carboxylic acid]",3.5 to 12.5,< 1,1 to 3.5,12.5 to 150,12.5 to 150,–,3.5 to 12.5,3.5 to 12.5,12.5 to 150,–,1 to 3.5
"CCc1c(-c2ccc3c(c2)cc(CN2CCC(OC)C2)n3C)[nH]c(=O)c(C(=O)O)c1O (stereo not drawn) [Cpd 179, 5-ethyl-4-hydroxy-6-(2-((3-methoxypyrrolidin-1-yl)methyl)-1-methyl-1H-indol-5-yl)-2-oxo-1,2-dihydropyridine-3-carboxylic acid]",3.5 to 12.5,< 1,1 to 3.5,12.5 to 150,12.5 to 150,3.5 to 12.5,3.5 to 12.5,3.5 to 12.5,12.5 to 150,1 to 3.5,–
"CCc1c(-c2ccc3c(c2)cc(CN2CC(F)C2)n3C)[nH]c(=O)c(C(=O)O)c1O [Cpd 194, 5-ethyl-6-(2-((3-fluoroazetidin-1-yl)methyl)-1-methyl-1H-indol-5-yl)-4-hydroxy-2-oxo-1,2-dihydropyridine-3-carboxylic acid]",3.5 to 12.5,< 1,1 to 3.5,12.5 to 150,12.5 to 150,3.5 to 12.5,3.5 to 12.5,12.5 to 150,12.5 to 150,1 to 3.5,–
"CCc1c(-c2ccc3c(c2)cc(CN2CC(CO)C2)n3C)[nH]c(=O)c(C(=O)O)c1O [Cpd 271, 5-ethyl-4-hydroxy-6-(2-((3-(hydroxymethyl)azetidin-1-yl)methyl)-1-methyl-1H-indol-5-yl)-2-oxo-1,2-dihydropyridine-3-carboxylic acid]",12.5 to 150,< 1,< 1,3.5 to 12.5,12.5 to 150,12.5 to 150,3.5 to 12.5,3.5 to 12.5,12.5 to 150,1 to 3.5,–
"CCc1c(-c2ccc3c(c2)cc(CNC(CF)CF)n3C)[nH]c(=O)c(C(=O)O)c1O [Cpd 274, 6-(2-((1,3-difluoropropan-2-ylamino)methyl)-1-methyl-1H-indol-5-yl)-5-ethyl-4-hydroxy-2-oxo-1,2-dihydropyridine-3-carboxylic acid]",3.5 to 12.5,< 1,1 to 3.5,12.5 to 150,12.5 to 150,3.5 to 12.5,3.5 to 12.5,3.5 to 12.5,12.5 to 150,3.5 to 12.5,–
"Cc1c(-c2ccc3c(c2)cc(CN2CCCC2)n3C)[nH]c(=O)c(C(=O)O)c1O [Cpd 313, 4-hydroxy-5-methyl-6-(1-methyl-2-(pyrrolidin-1-ylmethyl)-1H-indol-5-yl)-2-oxo-1,2-dihydropyridine-3-carboxylic acid]",12.5 to 150,< 1,3.5 to 12.5,12.5 to 150,12.5 to 150,1 to 3.5,1 to 3.5,1 to 3.5,3.5 to 12.5,3.5 to 12.5,–
